Measured values reported in ChEMBL document CHEMBL4266008, “Exploring Halogen Bonds in 5-Hydroxytryptamine 2B Receptor-Ligand Interactions” (ACS Med Chem Lett, 2018).
pIC50, pKi: −log10 of the molar value. Activity calls are given as the source filed them. The rule behind the calls is not given here.

What was measured:
[1] = biological target: T1, 5-hydroxytryptamine receptor 2B (Homo sapiens, UniProt P41595); experiment: (§1) Antagonist activity at 5HT2B (unknown origin) expressed in CHOK1 cells assessed as inhibition of agonist-induced effect preincubated for 60 mins at 37 degC followed by 15 mins incubation at room temperature and subsequent agonist addition measured for 100 secs by fluorescence assay; format: functional, cell-based
T1 sequence (P41595 whole entry): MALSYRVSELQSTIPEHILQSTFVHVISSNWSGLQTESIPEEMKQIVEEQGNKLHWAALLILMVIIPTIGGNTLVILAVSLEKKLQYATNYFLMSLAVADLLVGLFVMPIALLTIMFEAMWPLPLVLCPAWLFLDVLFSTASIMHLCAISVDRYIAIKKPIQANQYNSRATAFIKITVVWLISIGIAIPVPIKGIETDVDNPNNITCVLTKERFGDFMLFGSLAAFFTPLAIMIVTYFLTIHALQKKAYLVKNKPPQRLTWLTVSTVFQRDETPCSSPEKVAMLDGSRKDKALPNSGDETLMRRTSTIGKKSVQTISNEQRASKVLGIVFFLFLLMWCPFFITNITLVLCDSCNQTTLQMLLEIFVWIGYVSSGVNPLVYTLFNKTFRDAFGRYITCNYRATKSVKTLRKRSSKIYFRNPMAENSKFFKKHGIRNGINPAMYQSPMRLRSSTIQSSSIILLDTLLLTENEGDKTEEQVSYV

[2] = biological target: T1, 5-hydroxytryptamine receptor 2B; experiment: Displacement of [3H]LSD from 5HT2B (unknown origin) after 1.5 hrs by microbeta scintillation counting method
Mus musculus [3] = experiment: Protection against castor oil-induced diarrhea in C57BL/6 mouse assessed as improvement in body weight at 10 mg/kg, po pretreated for 15 mins followed by castor oil addition measured over 4 hrs; format: functional, organism-based
Mus musculus [4] = experiment: Protection against castor oil-induced diarrhea in C57BL/6 mouse assessed as improvement in fecal output at 10 mg/kg, po pretreated for 15 mins followed by castor oil addition measured over 4 hrs; format: functional, organism-based
Mus musculus [5] = experiment: Protection against castor oil-induced diarrhea in C57BL/6 mouse assessed as improvement in stool consistency at 10 mg/kg, po pretreated for 15 mins followed by castor oil addition measured over 4 hrs; format: functional, organism-based
[6] = biological target: T1, 5-hydroxytryptamine receptor 2B; experiment: as §1, with “effect at 10 uM” for “effect”, “assay relative to control” for “assay”; format: functional, cell-based

Compound: NC1=NC2(CCCCC2)NC(Nc2cc(Br)cc(Br)c2)=N1
- pIC50 [1]: 6.67

Compound: NC1=NC2(CCCCC2)NC(Nc2ccccc2)=N1
- pKi [2]: 6.82
- pIC50 [1]: 5.78

Compound: NC1=NC2(CCCCC2)NC(Nc2cc(F)cc(Br)c2)=N1
- pIC50 [1]: 7.13

Compound: NC1=NC2(CCCCC2)NC(Nc2cccc(I)c2)=N1
- pKi [2]: 8.77
- pIC50 [1]: 7.63

Compound: CN(C)CC/C=C1\c2ccc(Cl)cc2COc2ccccc21
- pKi [2]: 8.52

Compound: CN(C)CC/C=C1\c2ccc(Br)cc2COc2ccccc21
- pKi [2]: 8.60
- Activity (Mus musculus [3]): Active
- Activity (Mus musculus [4]): Active
- Activity (Mus musculus [5]): Active

Compound: NC1=NC2(CCCCC2)NC(Nc2cccc(O)c2)=N1
- pKi [2]: 6.50
- inhibition [6]: < 50%

Compound: CCOC(=O)c1cc(Br)cc(NC2=NC(N)=NC3(CCCCC3)N2)c1
- pIC50 [1]: 5.71

Compound: NC1=NC2(CCCCC2)NC(Nc2cccc(F)c2)=N1
- pKi [2]: 7.27
- pIC50 [1]: 6.39

Compound: NC1=NC2(CCCCC2)NC(Nc2cccc(Br)c2)=N1
- pKi [2]: 8.24
- pIC50 [1]: 7.45

Compound: CN(C)CC/C=C1\c2ccc(F)cc2COc2ccccc21
- pKi [2]: 7.78

Compound: NC1=NC2(CCCCC2)NC(Nc2cccc(Cl)c2)=N1
- pKi [2]: 8.20
- pIC50 [1]: 7.33

Compound: Cc1cccc(NC2=NC(N)=NC3(CCCCC3)N2)c1
- pKi [2]: 7.70
- pIC50 [1]: 6.34

Compound: CN(C)CC/C=C1\c2ccccc2COc2ccccc21 [E-DOXEPIN]
- Activity (Mus musculus [4]): Active
- Activity (Mus musculus [5]): Active
